According to PubChem BioAssay AID248 (DTP/NCI, 2004):
Values joined by “and” are separate entries in the source; they are usually repeats but may differ in a detail not shown here. Equal entries are not always repeated. Inconclusive results and toxic doses are left out. Rule as the data show it: active = T/C of 150% or more; inactive = T/C below 125%. Square brackets hold non-standard residues; d marks the D form. Peptide text beside a SMILES is read from it. * marks the point of attachment. ξ: configuration not given here. ξE = NC(CCC(=O)O)C(=O)O; Cbz = O=C(OCc1ccccc1)*; Abu = CC[CH](N)C(=O)O; OBn = c1ccc(CO*)cc1

System: L1210 leukemia ip in BDF1 mice, survival T/C
Test: NCI In Vivo Anticancer Drug Screen. Data for tumor model L1210 Leukemia (intraperitoneal) in B6D2F1 (BDF1) mice
Details: endpoint: mean survival time, higher = longer survival
How it was run: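 Tumor was transplanted into mice, which were then dosed with test compound or vehicle alone. Survival was recorded for each group, and the treated figure was expressed relative to the control figure.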

[1] = dose: 50.0 mg/kg/injection, schedule: Q01DX001 (ip), vehicle: saline
[2] = dose: 100.0 mg/kg/injection, schedule: Q01DX009 (ip), vehicle: saline with Tween-80
[3] = dose: 100.0 mg/kg/injection, schedule: Q01DX009 (ip), vehicle: Klucel (hydroxypropylcellulose) (HPC)
[4] = dose: 200.0 mg/kg/injection, schedule: Q01DX009 (ip), vehicle: Klucel (hydroxypropylcellulose) (HPC)
[5] = dose: 200.0 mg/kg/injection, schedule: Q01DX009 (ip), vehicle: saline
[6] = dose: 400.0 mg/kg/injection, schedule: Q01DX009 (ip), vehicle: saline
[7] = dose: 100.0 mg/kg/injection, schedule: Q04DX002 (ip), vehicle: saline with Tween-80
[8] = dose: 400.0 mg/kg/injection, schedule: Q04DX002 (ip), vehicle: saline with Tween-80
[9] = dose: 200.0 mg/kg/injection, schedule: Q04DX002 (ip), vehicle: saline with Tween-80
[10] = dose: 200.0 mg/kg/injection, schedule: Q01DX009 (ip), vehicle: saline with Tween-80
[11] = dose: 100.0 mg/kg/injection, schedule: Q01DX001 (ip), vehicle: saline
[12] = dose: 200.0 mg/kg/injection, schedule: Q01DX001 (ip), vehicle: saline
[13] = dose: 400.0 mg/kg/injection, schedule: Q01DX001 (ip), vehicle: saline

Measured: T/C

COc1ccc(NC(=O)CCN2CC2)cc1
inactive: dose: 12.5 mg/kg/injection, schedule: Q01DX001 (ip), vehicle: saline 105 % of control | dose: 25.0 mg/kg/injection, schedule: Q01DX001 (ip), vehicle: saline 97 % of control | dose: 25.0 mg/kg/injection, schedule: Q01DX009 (ip), vehicle: saline with Tween-80 103 % of control | [1] 103 % of control | dose: 50.0 mg/kg/injection, schedule: Q01DX009 (ip), vehicle: saline with Tween-80 95 % of control | dose: 100.0 mg/kg/injection, schedule: Q01DX001 (ip), vehicle: alcohol 93 % of control | [2] 91 % of control | dose: 200.0 mg/kg/injection, schedule: Q01DX001 (ip), vehicle: alcohol 86 % of control

O=C(O)CCC(NC(=O)CNC(=O)OCc1ccccc1)C(=O)O (stereo not drawn) (Cbz-Gly-[ξE]-OH)
inactive: dose: 50.0 mg/kg/injection, schedule: Q01DX009 (ip), vehicle: Klucel (hydroxypropylcellulose) (HPC) 95 % of control | dose: 50.0 mg/kg/injection, schedule: Q04DX003 (ip), vehicle: Klucel (hydroxypropylcellulose) (HPC) 92 % of control | [3] 97 % of control | dose: 100.0 mg/kg/injection, schedule: Q04DX003 (ip), vehicle: Klucel (hydroxypropylcellulose) (HPC) 96 % of control | [4] 93 % of control | dose: 200.0 mg/kg/injection, schedule: Q04DX003 (ip), vehicle: Klucel (hydroxypropylcellulose) (HPC) 93 % of control

CC1(C)N=C(N)N=C(N)N1c1ccc(OCCOc2ccc(S(=O)(=O)F)cc2)cc1
inactive: dose: 100.0 mg/kg/injection, schedule: Q01DX001 (ip), vehicle: gum acacia 101 % of control | dose: 200.0 mg/kg/injection, schedule: Q01DX001 (ip), vehicle: gum acacia 98 % of control | dose: 400.0 mg/kg/injection, schedule: Q01DX001 (ip), vehicle: gum acacia 103 % of control

CCc1ccc(C(=O)NN)cc1
inactive: dose: 25.0 mg/kg/injection, schedule: Q01DX009 (ip), vehicle: saline 95 % of control | dose: 50.0 mg/kg/injection, schedule: Q01DX009 (ip), vehicle: saline 105 % of control and 113 % of control | [5] 117 % of control | [6] 123 % of control

c1ccc(-c2oc(-c3ccccc3)c3c(-c4ccccc4)cccc23)cc1
inactive: [7] 105 % of control | [8] 98 % of control

COc1cc(-c2nc(/C=C3\C(=O)C=Cc4ccccc43)c(O)o2)cc(OC)c1OC
inactive: [7] 93 % of control | [9] 86 % of control | [8] 93 % of control

C/C(C(=O)O)=C(\C)C(=O)O
inactive: dose: 100.0 mg/kg/injection, schedule: Q01DX009 (ip), vehicle: saline 104 % of control | dose: 100.0 mg/kg/injection, schedule: Q04DX002 (ip), vehicle: saline 108 % of control | [5] 97 % of control | dose: 200.0 mg/kg/injection, schedule: Q04DX002 (ip), vehicle: saline 104 % of control | [6] 108 % of control | dose: 400.0 mg/kg/injection, schedule: Q04DX002 (ip), vehicle: saline 101 % of control

COc1cccc2c1C(=O)OC2=O
inactive: dose: 75.0 mg/kg/injection, schedule: Q01DX009 (ip), vehicle: Klucel (hydroxypropylcellulose) (HPC) 88 % of control | dose: 150.0 mg/kg/injection, schedule: Q01DX009 (ip), vehicle: Klucel (hydroxypropylcellulose) (HPC) 90 % of control | dose: 300.0 mg/kg/injection, schedule: Q01DX009 (ip), vehicle: Klucel (hydroxypropylcellulose) (HPC) 88 % of control

CCC1(CCC#N)CCC(N)=CC1=O (stereo not given)
inactive: [2] 97 % of control | [10] 106 % of control | dose: 400.0 mg/kg/injection, schedule: Q01DX009 (ip), vehicle: saline with Tween-80 97 % of control

CCOc1ccc(N)c([N+](=O)[O-])c1
inactive: [11] 100 % of control | [12] 107 % of control | [13] 105 % of control

CC12CC3(C)CC(C)(C1)CC(NC(=O)N(CCCl)N=O)(C2)C3
active: dose: 20.0 mg/kg/injection, schedule: Q01DX001 (ip), vehicle: other 155 % of control | dose: 187.0 mg/kg/injection, schedule: Q01DX001 (ip), vehicle: other 162 % of control | dose: 250.0 mg/kg/injection, schedule: Q01DX001 (ip), vehicle: other 187 % of control | dose: 375.0 mg/kg/injection, schedule: Q01DX001 (ip), vehicle: other 211 % of control | dose: 500.0 mg/kg/injection, schedule: Q01DX001 (ip), vehicle: other 258 % of control | dose: 750.0 mg/kg/injection, schedule: Q01DX001 (ip), vehicle: other 274 % of control

O=C(Nc1ccc(-c2nc3ccccc3[nH]2)cc1)c1ccc(C(=O)Nc2ccc(-c3nc4ccccc4[nH]3)cc2)cc1
inactive: dose: 15.0 mg/kg/injection, schedule: Q01DX Z (ip), vehicle: carboxymethylcellulose (CMC) 97 % of control | dose: 30.0 mg/kg/injection, schedule: Q01DX Z (ip), vehicle: carboxymethylcellulose (CMC) 97 % of control | dose: 60.0 mg/kg/injection, schedule: Q01DX Z (ip), vehicle: carboxymethylcellulose (CMC) 94 % of control | dose: 120.0 mg/kg/injection, schedule: Q01DX Z (ip), vehicle: carboxymethylcellulose (CMC) 100 % of control

COc1cc(C(=O)O)cc(OC)c1OC
inactive: dose: 100.0 mg/kg/injection, schedule: Q04DX002 (ip), vehicle: other 103 % of control | dose: 200.0 mg/kg/injection, schedule: Q04DX002 (ip), vehicle: other 98 % of control | dose: 400.0 mg/kg/injection, schedule: Q04DX002 (ip), vehicle: other 98 % of control

CCCCC(CCCC)(S(=O)(=O)CC)S(=O)(=O)CC
inactive: dose: 100.0 mg/kg/injection, schedule: Q01DX001 (ip), vehicle: carboxymethylcellulose (CMC) 104 % of control | dose: 177.6 mg/kg/injection, schedule: Q01DX001 (ip), vehicle: carboxymethylcellulose (CMC) 94 % of control and 104 % of control | dose: 200.0 mg/kg/injection, schedule: Q01DX001 (ip), vehicle: carboxymethylcellulose (CMC) 89 % of control | dose: 266.8 mg/kg/injection, schedule: Q01DX001 (ip), vehicle: carboxymethylcellulose (CMC) 98 % of control and 88 % of control | dose: 600.0 mg/kg/injection, schedule: Q01DX001 (ip), vehicle: carboxymethylcellulose (CMC) 98 % of control and 92 % of control

NC(N)=N/N=C/c1ccc(O)cc1
inactive: dose: 15.0 mg/kg/injection, schedule: Q01DX Z (ip), vehicle: saline 104 % of control | dose: 30.0 mg/kg/injection, schedule: Q01DX Z (ip), vehicle: saline 88 % of control | dose: 30.0 mg/kg/injection, schedule: Q01DX Z (oral), vehicle: saline 94 % of control | dose: 60.0 mg/kg/injection, schedule: Q01DX Z (ip), vehicle: saline 95 % of control | dose: 60.0 mg/kg/injection, schedule: Q01DX Z (oral), vehicle: saline 94 % of control | dose: 120.0 mg/kg/injection, schedule: Q01DX Z (oral), vehicle: saline 90 % of control | dose: 240.0 mg/kg/injection, schedule: Q01DX Z (oral), vehicle: saline 100 % of control

COC1CCC2(C)C(C)C(C)CC3OC32C1 (stereo not given)
inactive: [1] 95 % of control | [11] 101 % of control | [12] 95 % of control | [13] 104 % of control

O=c1[nH]cnc2nc(SCc3cccc([N+](=O)[O-])c3)[nH]c12
inactive: dose: 150.0 mg/kg/injection, schedule: Q01DX001 (ip), vehicle: other 89 % of control | dose: 300.0 mg/kg/injection, schedule: Q01DX001 (ip), vehicle: other 87 % of control

Cc1cc(C2=NCC(C)S2)c(C(C)C)cc1O (stereo not given)
inactive: [7] 93 % of control | [9] 104 % of control | [8] 104 % of control

CCC(NC(=O)OCc1ccccc1)C(=O)NC(Cc1ccc(O)cc1)C(=O)OCc1ccccc1 (stereo not given) (Cbz-[Abu]-Tyr-OBn; configuration not given here)
inactive: [3] 102 % of control | [4] 91 % of control | dose: 400.0 mg/kg/injection, schedule: Q01DX009 (ip), vehicle: Klucel (hydroxypropylcellulose) (HPC) 99 % of control

CCN(CC)C(=O)Oc1ccc(OC)cc1
inactive: [2] 109 % of control | [10] 96 % of control

CNCCc1ccccc1
inactive: [11] 107 % of control | [12] 108 % of control

COC(=O)c1cccc(OC)c1-c1c(OC)cccc1C(=O)OC
inactive: dose: 100.0 mg/kg/injection, schedule: Q01DX001 (ip), vehicle: Klucel (hydroxypropylcellulose) (HPC) 105 % of control | dose: 200.0 mg/kg/injection, schedule: Q01DX001 (ip), vehicle: Klucel (hydroxypropylcellulose) (HPC) 103 % of control | dose: 400.0 mg/kg/injection, schedule: Q01DX001 (ip), vehicle: Klucel (hydroxypropylcellulose) (HPC) 102 % of control
